Assay [1] has as its target T1, FLAG-Uba1 (Homo sapiens, UniProt P22314).
T1 construct: GST- and FLAG-tagged human Uba1 in pBJ842, expressed in S. cerevisiae BJ5654, GST cleaved with PreScission protease, FLAG tag kept
T1 sequence (P22314 2-1058): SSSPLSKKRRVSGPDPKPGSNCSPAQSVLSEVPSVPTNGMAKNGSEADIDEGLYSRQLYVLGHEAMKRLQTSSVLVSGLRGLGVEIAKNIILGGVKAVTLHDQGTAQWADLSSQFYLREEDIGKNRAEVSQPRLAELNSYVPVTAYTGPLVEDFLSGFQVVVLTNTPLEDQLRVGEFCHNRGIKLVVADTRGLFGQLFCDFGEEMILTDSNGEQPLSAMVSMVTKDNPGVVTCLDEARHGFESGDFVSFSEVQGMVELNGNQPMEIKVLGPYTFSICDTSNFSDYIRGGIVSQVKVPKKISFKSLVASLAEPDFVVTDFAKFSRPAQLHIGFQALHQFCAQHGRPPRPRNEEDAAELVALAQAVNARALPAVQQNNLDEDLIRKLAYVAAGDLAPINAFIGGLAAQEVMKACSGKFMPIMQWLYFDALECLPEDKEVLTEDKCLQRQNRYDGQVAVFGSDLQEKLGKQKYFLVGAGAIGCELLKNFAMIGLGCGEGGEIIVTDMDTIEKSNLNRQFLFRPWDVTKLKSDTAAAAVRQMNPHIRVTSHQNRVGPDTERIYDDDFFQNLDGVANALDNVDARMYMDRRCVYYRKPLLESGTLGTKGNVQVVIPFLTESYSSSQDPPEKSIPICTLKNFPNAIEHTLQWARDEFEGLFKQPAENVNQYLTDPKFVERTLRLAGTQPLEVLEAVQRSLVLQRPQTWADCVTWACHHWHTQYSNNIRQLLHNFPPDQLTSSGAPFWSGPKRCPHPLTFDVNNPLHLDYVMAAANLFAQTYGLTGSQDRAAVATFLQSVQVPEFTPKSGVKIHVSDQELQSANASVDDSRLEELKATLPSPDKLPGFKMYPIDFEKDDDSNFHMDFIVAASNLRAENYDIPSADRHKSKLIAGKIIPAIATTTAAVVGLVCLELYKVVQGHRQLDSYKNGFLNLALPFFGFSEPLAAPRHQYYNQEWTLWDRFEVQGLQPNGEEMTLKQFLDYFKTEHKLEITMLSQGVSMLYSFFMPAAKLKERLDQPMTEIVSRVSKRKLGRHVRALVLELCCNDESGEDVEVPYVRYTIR
Nature of the assay: AlphaScreen Uba1~ubiquitin thioester formation. It counts as biochemical.

For assay [2], the target named is T1, FLAG-Uba1. In words: AlphaScreen Uba1~ubiquitin thioester formation. In kind it is biochemical. To be noted: read-out: IC50for inhibition of PCNA ubiquitination (Alpha). The text has this: AlphaScreen Uba1~ubiquitin thioester formation on FLAG-Uba1
(Alpha assays give light when donor and acceptor beads are brought close together.)

The mark [3] stands for this setting: read-out: IC50for inhibition of Uba1~Ub thioester formation (Alpha).
[4] abbreviates: read-out: IC50for inhibition of PCNA ubiquitination (Alpha).

Where two headings read alike, the source gives them in different places.

On to `CCCCCCCCCCCCOC(=O)c1cc(O)c(O)c(O)c1` [DG], for which the IC50 at FLAG-Uba1 [1] (setting [3]) stood at 44.4 µM.
On the same count and under the same terms, in the case of `O=C(O[C@@H]1Cc2c(O)cc(O)cc2O[C@@H]1c1ccc(O)c(O)c1)c1cc(O)c(O)c(O)c1` [ECG] it was 0.769 µM.
As for `Oc1cc(O)c2c(c1)O[C@H](c1ccc(O)c(O)c1)[C@@H](O)C2` [Cat], the IC50 on FLAG-Uba1 [1] (read-out: IC50for inhibition of PCNA ubiquitination (Western blot) [19]) was greater than 500 µM.
In the case of `O=c1c(O)c(-c2cc(O)c(O)c(O)c2)oc2cc(O)cc(O)c12` [Myr], the IC50 at FLAG-Uba1 [1] (setting [3]) turned out to be 1.59 µM.
`CCCCCCCCOC(=O)c1cc(O)c(O)c(O)c1` [OG]: the IC50 on FLAG-Uba1 [1] (15 min preincubation, biotin-ubiquitin, 2 mM ATP, 8 mM MgCl2, pH 7.5, 25 °C, 30 min, 1% DMSO, read-out: IC50for inhibition of Uba1~Ub thioester formation (Alpha)) was 13.4 µM.
As for `CCCOC(=O)c1cc(O)c(O)c(O)c1` [PG], at FLAG-Uba1 [1] (setting [4]), the IC50 was greater than 500 µM.
`O=C1c2c(O)cc(O)cc2O[C@H](c2cc(O)c(O)c(O)c2)[C@H]1O` [DM]: the IC50 on FLAG-Uba1 [1] (setting [3]) was 27.5 µM.
Same read-out and setting: with `Oc1cc(O)c2c(c1)O[C@H](c1cc(O)c(O)c(O)c1)[C@H](O)C2` [EGC] the figure was 5.96 µM.
For the molecule `Oc1cc(O)c2c(c1)O[C@H](c1ccc(O)c(O)c1)[C@H](O)C2` [EC], the IC50 on FLAG-Uba1 [1] (setting [4]) was greater than 500 µM.
Turning to `O=C(O)c1cc(O)c(O)c(O)c1` [GA], the IC50 at FLAG-Uba1 [2] is greater than 500 µM.
